Source: ChEMBL document CHEMBL1201862, “PubChem BioAssay data set” (2004)
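Where inhibition never reached the appropriate level, the endpoint shown equals the highest concentration tested. Otherwise, values were interpolated linearly from a five-concentration, 48-hour dose response in 96-well plates. The concentration for 50% growth inhibition is given as GI50.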 Activity calls are given as the source filed them. Rule as the data show it: active = GI50 up to about 1.1 µM and inactive = higher.

Tests used:
Assay in all cases: NCI-60 cell line screen, 48 h
HCT-116 = test system: HCT-116
NCI/ADR-RES = test system: NCI/ADR-RES
DMS-114 = test system: DMS-114
KM12 = test system: KM12
OVCAR-3 = test system: OVCAR-3
LOX IMVI = test system: LOX IMVI
SF-268 = test system: SF-268
LXFL 529 = test system: LXFL 529
HCT-15 = test system: HCT-15
COLO 205 = test system: COLO 205
OVCAR-8 = test system: OVCAR-8
NCI-H23 = test system: NCI-H23
UACC-62 = test system: UACC-62
SK-MEL-5 = test system: SK-MEL-5
NCI-H226 = test system: NCI-H226
Malme-3M = test system: Malme-3M
MDA-MB-231 = test system: MDA-MB-231
MCF7 = test system: MCF7
Hs-578T = test system: Hs-578T
SW-620 = test system: SW-620

In the case of COC1C(CO)OC(n2c3c(Cl)cccc3c3c4c(c5c6cccc(Cl)c6[nH]c5c32)C(=O)NC4=O)C(O)C1O (stereo not given), the GI50 (HCT-116) is reported as 0.097 µM (active), the GI50 (NCI/ADR-RES) is reported as 0.444 µM (active) and the GI50 (DMS-114) is reported as 0.258 µM (active). The GI50 (KM12) was 0.614 µM (active), the GI50 (OVCAR-3) was 0.292 µM (active) and the GI50 (LOX IMVI) was 0.116 µM (active). For the same compound, the GI50 (SF-268) was 0.149 µM (active), the GI50 (LXFL 529) was 0.33 µM (active) and the GI50 (HCT-15) was 0.401 µM. The GI50 (COLO 205) was 0.351 µM (active), the GI50 (OVCAR-8) was 0.177 µM (active) and the GI50 (NCI-H23) was 0.153 µM (active). For the same compound, the GI50 (UACC-62) was 0.113 µM (active), the GI50 (SK-MEL-5) was 0.157 µM (active) and the GI50 (NCI-H226) was 0.187 µM (active). The GI50 (Malme-3M) was 0.223 µM (active), the GI50 (MDA-MB-231) was 0.276 µM (active) and the GI50 (MCF7) was 0.1 µM (active). The GI50 (Hs-578T) was 0.31 µM (active) and the GI50 (SW-620) was 0.0849 µM (active).
With CC(=O)C1CC=C(C)CC1 (stereo not given) the GI50 (HCT-116) was > 100 µM (inactive), the GI50 (DMS-114) was > 100 µM (inactive) and the GI50 (KM12) was > 100 µM (inactive). For the same compound, the GI50 (OVCAR-3) was > 100 µM (inactive), the GI50 (LOX IMVI) was > 100 µM (inactive) and the GI50 (SF-268) was > 100 µM (inactive). For the same compound, the GI50 (LXFL 529) was > 100 µM (inactive), the GI50 (HCT-15) was > 100 µM and the GI50 (COLO 205) was > 100 µM (inactive). For the same compound, the GI50 (OVCAR-8) was > 100 µM (inactive), the GI50 (NCI-H23) was > 100 µM (inactive) and the GI50 (UACC-62) was > 100 µM (inactive). For the same compound, the GI50 (SK-MEL-5) was > 100 µM (inactive), the GI50 (NCI-H226) was > 100 µM (inactive) and the GI50 (Malme-3M) was > 100 µM (inactive). For the same compound, the GI50 (SW-620) was > 100 µM (inactive).
COc1cccc(/C=C2\CCC(CN(C)C)C2=O)c1 (stereo not given) was tested, and the GI50 (HCT-116) was 3.07 µM (inactive), the GI50 (NCI/ADR-RES) was 2.42 µM (inactive) and the GI50 (DMS-114) was 13.9 µM (inactive). The GI50 (KM12) was 4.11 µM (inactive), the GI50 (OVCAR-3) was 5.04 µM (inactive) and the GI50 (LOX IMVI) was 1.73 µM (inactive). For the same compound, the GI50 (SF-268) was 6.07 µM (inactive), the GI50 (LXFL 529) was 2.5 µM (inactive) and the GI50 (HCT-15) was 2.58 µM. For the same compound, the GI50 (COLO 205) was 4.35 µM (inactive), the GI50 (OVCAR-8) was 3.08 µM (inactive) and the GI50 (NCI-H23) was 8.09 µM (inactive). For the same compound, the GI50 (UACC-62) was 8.24 µM (inactive), the GI50 (SK-MEL-5) was 9.82 µM (inactive) and the GI50 (NCI-H226) was 16.3 µM (inactive). For the same compound, the GI50 (Malme-3M) was 5.81 µM (inactive), the GI50 (MDA-MB-231) was 4.66 µM (inactive) and the GI50 (MCF7) was 2.25 µM (inactive). For the same compound, the GI50 (Hs-578T) was 8.71 µM (inactive) and the GI50 (SW-620) was 2.21 µM (inactive).
Cc1cc(C)nc(NS(=O)(=O)c2ccc(NC(=O)c3cccc4c(N)c5ccccc5nc34)cc2)n1 was tested, and the GI50 (HCT-116) was 90.6 µM (inactive), the GI50 (DMS-114) was > 100 µM (inactive) and the GI50 (KM12) was 40.6 µM (inactive). For the same compound, the GI50 (OVCAR-3) was > 100 µM (inactive), the GI50 (LOX IMVI) was 53.6 µM (inactive) and the GI50 (SF-268) was > 100 µM (inactive). For the same compound, the GI50 (LXFL 529) was > 100 µM (inactive), the GI50 (HCT-15) was > 100 µM and the GI50 (COLO 205) was > 100 µM (inactive). The GI50 (OVCAR-8) was 65.8 µM (inactive), the GI50 (NCI-H23) was > 100 µM (inactive) and the GI50 (UACC-62) was > 100 µM (inactive). The GI50 (SK-MEL-5) was > 100 µM (inactive), the GI50 (NCI-H226) was > 100 µM (inactive) and the GI50 (Malme-3M) was > 100 µM (inactive). The GI50 (SW-620) was > 100 µM (inactive).
For O=C(Nc1ccc(Cl)cc1)NS(=O)(=O)c1ccc2c(c1)CCC2 [SULOFENUR], the GI50 (HCT-116) was 26.2 µM (inactive), the GI50 (DMS-114) was 35.2 µM (inactive) and the GI50 (KM12) was 36.1 µM (inactive). The GI50 (OVCAR-3) was 24.3 µM (inactive), the GI50 (LOX IMVI) was 37.6 µM (inactive) and the GI50 (SF-268) was 49.2 µM (inactive). The GI50 (LXFL 529) was 31.5 µM (inactive), the GI50 (HCT-15) was 35.6 µM and the GI50 (COLO 205) was 29.8 µM (inactive). For the same compound, the GI50 (OVCAR-8) was 40.8 µM (inactive), the GI50 (NCI-H23) was 28.1 µM (inactive) and the GI50 (UACC-62) was 23.9 µM (inactive). The GI50 (SK-MEL-5) was 26.9 µM (inactive), the GI50 (NCI-H226) was 37.9 µM (inactive) and the GI50 (Malme-3M) was 24.5 µM (inactive). The GI50 (MCF7) was 24.1 µM (inactive), the GI50 (Hs-578T) was 0.209 µM (active) and the GI50 (SW-620) was 35.3 µM (inactive).
